Assay results reported in ChEMBL document CHEMBL4699634, “Series of Novel and Highly Potent Cyclic Peptide PCSK9 Inhibitors Derived from an mRNA Display Screen and Optimized via Structure-Based Design” (J Med Chem, 2020).
Numbered stars: 1 amine (or outer) side, 2 acyl side, 3 side chain; on linkers, the order of the positions; unused ones are H or OH. Bridge positions count the residues as written; N and C are the ends. Square brackets hold non-standard residues; d marks the D form. Peptide text beside a SMILES is read from it. ξ: configuration not given here. Trp(5-F) = N[C@@H](Cc1c[nH]c2ccc(F)cc12)C(=O)O; X4 = CC(N[*:1])(C(=O)[*:2])c1cccc2ccccc12; NMeW = CN[C@@H](Cc1c[nH]c2ccccc12)C(=O)O; X1 = O=C(CCSCc1cccc(CSCCN[*:1])c1)[*:2]; mXylylene = c1cc(C[*:1])cc(C[*:2])c1; NMeY = CN[C@@H](Cc1ccc(O)cc1)C(=O)O; NMeH = CN[C@@H](Cc1c[nH]cn1)C(=O)O; NMeD = CN[C@@H](CC(=O)O)C(=O)O; NMeK = CN[C@@H](CCCCN)C(=O)O; ξhPhe = NC(CCc1ccccc1)C(=O)O; αMeP = C[C@@]1(C(=O)O)CCCN1; NMeC = CN[C@@H](CS)C(=O)O; Pip = O=C(O)[C@@H]1CCCCN1; Aze = O=C(O)[C@@H]1CCN1; Mpa = O=C(O)CCS; Sar = CNCC(=O)O

Columns and labels:
[1] = target: Proprotein convertase subtilisin/kexin type 9 (Homo sapiens, UniProt Q8NBP7); experiment: Inhibition of AlexaFluor647-tagged cyclic peptide binding to avi-tagged-biotinylated human PCSK9 measured after 2 hrs by Lance Streptavidin Europium based FRET assay
Chain of Proprotein convertase subtilisin/kexin type 9 (Q8NBP7 31-152 limits assumed): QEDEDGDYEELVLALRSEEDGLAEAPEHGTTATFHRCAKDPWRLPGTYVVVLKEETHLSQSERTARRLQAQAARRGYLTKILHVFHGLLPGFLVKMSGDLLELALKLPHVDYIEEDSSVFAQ
Chain of Proprotein convertase subtilisin/kexin type 9 (Q8NBP7 153-692 limits assumed): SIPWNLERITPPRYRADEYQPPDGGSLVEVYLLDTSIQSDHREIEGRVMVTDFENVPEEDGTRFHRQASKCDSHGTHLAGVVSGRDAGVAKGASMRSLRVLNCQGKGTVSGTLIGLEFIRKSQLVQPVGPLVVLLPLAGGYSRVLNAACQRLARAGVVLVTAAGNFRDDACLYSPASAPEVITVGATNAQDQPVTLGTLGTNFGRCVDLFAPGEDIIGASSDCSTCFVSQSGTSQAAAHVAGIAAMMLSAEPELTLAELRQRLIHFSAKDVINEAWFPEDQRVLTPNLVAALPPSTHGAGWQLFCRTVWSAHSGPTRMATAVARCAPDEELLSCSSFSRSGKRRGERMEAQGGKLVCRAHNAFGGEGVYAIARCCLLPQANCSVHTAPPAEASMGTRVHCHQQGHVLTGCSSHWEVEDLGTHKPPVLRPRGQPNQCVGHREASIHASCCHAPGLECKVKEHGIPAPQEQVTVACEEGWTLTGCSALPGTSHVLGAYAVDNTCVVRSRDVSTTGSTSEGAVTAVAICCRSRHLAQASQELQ

PCSK9/LDLR = PCSK9/LDLR (Homo sapiens, UniProt Q8NBP7); experiment: Inhibition of avi-tagged-biotinylated human PCSK9 interaction with His-tagged human LDLR EGFa domain by LANCE Ulight Streptavidin based TR-FRET assay; type: protein assay
Chain of PCSK9/LDLR (Q8NBP7 31-152 limits assumed): as the sequence (Q8NBP7 31-152 limits assumed) above
Chain of PCSK9/LDLR (Q8NBP7 153-692 limits assumed): as the sequence (Q8NBP7 153-692 limits assumed) above
Chain of PCSK9/LDLR (P01130 22-860 partner limits assumed): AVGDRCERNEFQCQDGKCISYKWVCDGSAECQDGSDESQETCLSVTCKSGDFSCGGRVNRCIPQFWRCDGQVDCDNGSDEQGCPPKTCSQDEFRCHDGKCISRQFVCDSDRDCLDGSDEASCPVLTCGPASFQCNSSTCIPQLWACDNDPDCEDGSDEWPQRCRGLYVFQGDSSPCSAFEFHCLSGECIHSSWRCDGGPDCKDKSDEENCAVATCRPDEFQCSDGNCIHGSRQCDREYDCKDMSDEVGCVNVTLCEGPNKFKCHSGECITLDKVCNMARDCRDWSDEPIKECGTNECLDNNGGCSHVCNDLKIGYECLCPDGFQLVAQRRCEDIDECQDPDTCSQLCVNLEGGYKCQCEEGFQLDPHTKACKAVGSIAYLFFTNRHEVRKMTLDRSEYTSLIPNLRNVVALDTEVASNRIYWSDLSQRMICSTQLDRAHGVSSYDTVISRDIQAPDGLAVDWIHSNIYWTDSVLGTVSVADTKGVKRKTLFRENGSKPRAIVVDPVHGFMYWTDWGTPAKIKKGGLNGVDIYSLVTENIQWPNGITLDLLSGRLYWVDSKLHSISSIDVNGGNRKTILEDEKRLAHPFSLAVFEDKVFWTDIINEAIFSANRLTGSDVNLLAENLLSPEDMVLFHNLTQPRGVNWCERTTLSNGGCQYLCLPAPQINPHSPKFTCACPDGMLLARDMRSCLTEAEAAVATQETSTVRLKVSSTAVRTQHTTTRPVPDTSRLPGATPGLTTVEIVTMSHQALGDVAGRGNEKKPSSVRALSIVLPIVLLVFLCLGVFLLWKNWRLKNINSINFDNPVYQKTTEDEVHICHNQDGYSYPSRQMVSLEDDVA

Compound	Ki [1] [nM]	Ki (PCSK9/LDLR) [nM]
COc1ccc(C[C@@H]2NC(=O)[C@H](Cc3cnc[nH]3)NC(=O)[C@H](CC(=O)O)NC(=O)[C@H](Cc3c[nH]c4ccc(F)cc34)NC(=O)[C@H](Cc3c[nH]c4ccc(F)cc34)NC(=O)[C@@H](C)NC(=O)[C@H](CCCCN)NC(=O)CCSCc3cccc(c3)CSCCNC(=O)[C@]3(C)CCCN3C2=O)cc1	3.9	–
C[C@@]12CCCN1C(=O)[C@H](Cc1ccc(O)cc1)NC(=O)[C@H](Cc1cnc[nH]1)NC(=O)[C@H](CC(=O)O)NC(=O)[C@H](Cc1c[nH]c3ccc(F)cc13)NC(=O)[C@H](Cc1c[nH]c3ccc(F)cc13)NC(=O)[C@@H](C1CCCC1)NC(=O)[C@H](CCCCN)NC(=O)CCSCc1cccc(c1)CSCCNC2=O	23.1	–
CC(C)(C)[C@H]1NC(=O)[C@H](CCCCN)NC(=O)CCSCc2cccc(c2)CSCCNC(=O)[C@]2(C)CCCN2C(=O)[C@H](Cc2ccc(O)cc2)NC(=O)[C@H](Cc2cnc[nH]2)NC(=O)[C@H](CC(=O)O)NC(=O)[C@H](Cc2c[nH]c3ccc(F)cc23)NC(=O)[C@H](Cc2c[nH]c3ccc(F)cc23)NC1=O	4.2	–
CN1C(=O)CNC(=O)[C@H](CCCCN)NC(=O)CCSCc2cccc(c2)CSC[C@@H](C(N)=O)NC(=O)[C@@H]2CCCN2C(=O)[C@H](Cc2ccc(O)cc2)NC(=O)[C@H](Cc2cnc[nH]2)NC(=O)[C@H](CC(=O)O)NC(=O)[C@H](Cc2c[nH]c3ccc(F)cc23)NC(=O)[C@@H]1Cc1c[nH]c2ccccc12 ([Mpa]KG[NMeW][Trp(5-F)]DHYPC-NH2; linker 1-10 via mXylylene)	–	> 48000
C[C@@H]1NC(=O)[C@H](Cc2c[nH]c3ccc(F)cc23)NC(=O)CNC(=O)[C@H](CCCCN)NC(=O)CCSCc2cccc(c2)CSC[C@@H](C(N)=O)NC(=O)[C@@H]2CCCN2C(=O)[C@H](Cc2ccc(O)cc2)NC(=O)[C@H](Cc2cnc[nH]2)NC(=O)[C@H](CC(=O)O)NC1=O ([Mpa]KG[Trp(5-F)]ADHYPC-NH2; linker 1-10 via mXylylene)	–	> 48000
CN1C(=O)[C@H](Cc2c[nH]c3ccc(F)cc23)NC(=O)CNC(=O)[C@H](CCCCN)NC(=O)CCSCc2cccc(c2)CSC[C@@H](C(N)=O)NC(=O)[C@@H]2CCCN2C(=O)[C@H](Cc2ccc(O)cc2)NC(=O)[C@H](Cc2cnc[nH]2)NC(=O)[C@H](CC(=O)O)NC(=O)[C@@H]1Cc1c[nH]c2ccccc12 ([Mpa]KG[Trp(5-F)][NMeW]DHYPC-NH2; linker 1-10 via mXylylene)	–	> 48000
C[C@@H]1NC(=O)[C@H](Cc2cnc[nH]2)NC(=O)[C@H](CC(=O)O)NC(=O)[C@H](Cc2c[nH]c3ccc(F)cc23)NC(=O)[C@H](Cc2c[nH]c3ccc(F)cc23)NC(=O)CNC(=O)[C@H](CCCCN)NC(=O)CCSCc2cccc(c2)CSC[C@@H](C(N)=O)NC(=O)[C@@H]2CCCN2C1=O ([Mpa]KG[Trp(5-F)][Trp(5-F)]DHAPC-NH2; linker 1-10 via mXylylene)	–	> 48000
C[C@@H]1NC(=O)[C@H](Cc2ccc(O)cc2)NC(=O)[C@H](Cc2cnc[nH]2)NC(=O)[C@H](CC(=O)O)NC(=O)[C@H](Cc2c[nH]c3ccc(F)cc23)NC(=O)[C@H](Cc2c[nH]c3ccc(F)cc23)NC(=O)CNC(=O)[C@H](CCCCN)NC(=O)CCSCc2cccc(c2)CSC[C@@H](C(N)=O)NC1=O ([Mpa]KG[Trp(5-F)][Trp(5-F)]DHYAC-NH2; linker 1-10 via mXylylene)	–	> 48000
CN1C(=O)[C@@H]2CCCN2C(=O)[C@H](Cc2ccc(O)cc2)NC(=O)[C@H](Cc2cnc[nH]2)NC(=O)[C@H](CC(=O)O)NC(=O)[C@H](Cc2c[nH]c3ccc(F)cc23)NC(=O)[C@H](Cc2c[nH]c3ccc(F)cc23)NC(=O)CNC(=O)[C@H](CCCCN)NC(=O)CCSCc2cccc(c2)CSC[C@H]1C(N)=O ([Mpa]KG[Trp(5-F)][Trp(5-F)]DHYP[NMeC]-NH2; linker 1-10 via mXylylene)	–	> 48000
CN1CC(=O)N[C@H](C(N)=O)CSCc2cccc(c2)CSCCC(=O)N[C@@H](CCCCN)C(=O)NCC(=O)N[C@@H](Cc2c[nH]c3ccc(F)cc23)C(=O)N[C@@H](Cc2c[nH]c3ccc(F)cc23)C(=O)N[C@@H](CC(=O)O)C(=O)N[C@@H](Cc2cnc[nH]2)C(=O)N[C@@H](Cc2ccc(O)cc2)C1=O ([Mpa]KG[Trp(5-F)][Trp(5-F)]DHY[Sar]C-NH2; linker 1-10 via mXylylene)	–	10700
C[C@@H]1NC(=O)[C@@H]2CCCN2C(=O)[C@H](Cc2c[nH]c3ccc(F)cc23)NC(=O)[C@H](Cc2c[nH]c3ccc(F)cc23)NC(=O)CNC(=O)[C@H](CCCCN)NC(=O)CCSCc2cccc(c2)CSC[C@@H](C(N)=O)NC(=O)[C@]2(C)CCCN2C(=O)[C@H](Cc2ccc(O)cc2)NC1=O ([Mpa]KG[Trp(5-F)][Trp(5-F)]PAY[αMeP]C-NH2; linker 1-10 via mXylylene)	–	88.3
CC1(c2cccc3ccccc23)NC(=O)CNC(=O)[C@H](CCCCN)NC(=O)CCSCc2cccc(c2)CSC[C@@H](C(N)=O)NC(=O)[C@@H]2CCCN2C(=O)[C@H](Cc2ccc(O)cc2)NC(=O)[C@H](Cc2cnc[nH]2)NC(=O)[C@H](CC(=O)O)NC(=O)[C@H](Cc2c[nH]c3ccc(F)cc23)NC1=O (stereo partly drawn) ([Mpa]KG[X4][Trp(5-F)]DHYPC-NH2; linker 1-10 via mXylylene)	–	63
NCCCC[C@@H]1NC(=O)CCSCc2cccc(c2)CSC[C@@H](C(N)=O)NC(=O)[C@@H]2CCCN2C(=O)[C@H](Cc2ccc(O)cc2)NC(=O)[C@H](Cc2cnc[nH]2)NC(=O)[C@H](CC(=O)O)NC(=O)[C@H](Cc2c[nH]c3ccc(F)cc23)NC(=O)C(CCc2ccccc2)NC(=O)CNC1=O (stereo partly drawn) ([Mpa]KG[ξhPhe][Trp(5-F)]DHYPC-NH2; linker 1-10 via mXylylene)	–	2210
CN1CC(=O)N[C@@H](Cc2c[nH]c3ccc(F)cc23)C(=O)N[C@@H](Cc2c[nH]c3ccc(F)cc23)C(=O)N[C@@H](CC(=O)O)C(=O)N[C@@H](Cc2cnc[nH]2)C(=O)N[C@@H](Cc2ccc(O)cc2)C(=O)N2CCC[C@H]2C(=O)N[C@H](C(N)=O)CSCc2cccc(c2)CSCCC(=O)N[C@@H](CCCCN)C1=O ([Mpa]K[Sar][Trp(5-F)][Trp(5-F)]DHYPC-NH2; linker 1-10 via mXylylene)	–	4090
CN1C(=O)CCSCc2cccc(c2)CSC[C@@H](C(N)=O)NC(=O)[C@@H]2CCCN2C(=O)[C@H](Cc2ccc(O)cc2)NC(=O)[C@H](Cc2cnc[nH]2)NC(=O)[C@H](CC(=O)O)NC(=O)[C@H](Cc2c[nH]c3ccc(F)cc23)NC(=O)[C@H](Cc2c[nH]c3ccc(F)cc23)NC(=O)CNC(=O)[C@@H]1CCCCN ([Mpa][NMeK]G[Trp(5-F)][Trp(5-F)]DHYPC-NH2; linker 1-10 via mXylylene)	–	342
NCCCC[C@@H]1NC(=O)CCSCc2cccc(c2)CSCCNC(=O)[C@@H]2CCCN2C(=O)[C@H](Cc2ccc(O)cc2)NC(=O)[C@H](Cc2c[nH]cn2)NC(=O)[C@H](CC(=O)O)NC(=O)[C@H](Cc2c[nH]c3ccc(F)cc23)NC(=O)[C@H](Cc2c[nH]c3ccc(F)cc23)NC(=O)CNC1=O (cyclo(DHYP[X1]KG[Trp(5-F)][Trp(5-F)]))	–	252

More lines, now with the values ahead:

Ki [1] [nM]	Ki (PCSK9/LDLR) [nM]	Compound
–	427	C[C@@H]1NC(=O)[C@H](Cc2c[nH]c3ccc(F)cc23)NC(=O)[C@H](Cc2c[nH]c3ccc(F)cc23)NC(=O)CNC(=O)[C@H](CCCCN)NC(=O)CCSCc2cccc(c2)CSC[C@@H](C(N)=O)NC(=O)[C@@H]2CCCN2C(=O)[C@H](Cc2ccc(O)cc2)NC(=O)[C@H](Cc2cnc[nH]2)NC1=O ([Mpa]KG[Trp(5-F)][Trp(5-F)]AHYPC-NH2; linker 1-10 via mXylylene)
–	525	C[C@@H]1NC(=O)[C@H](CC(=O)O)NC(=O)[C@H](Cc2c[nH]c3ccc(F)cc23)NC(=O)[C@H](Cc2c[nH]c3ccc(F)cc23)NC(=O)CNC(=O)[C@H](CCCCN)NC(=O)CCSCc2cccc(c2)CSC[C@@H](C(N)=O)NC(=O)[C@@H]2CCCN2C(=O)[C@H](Cc2ccc(O)cc2)NC1=O ([Mpa]KG[Trp(5-F)][Trp(5-F)]DAYPC-NH2; linker 1-10 via mXylylene)
–	67.5	NCCCC[C@@H]1NC(=O)CCSCc2cccc(c2)CSC[C@@H](C(N)=O)NC(=O)[C@@H]2CCN2C(=O)[C@H](Cc2ccc(O)cc2)NC(=O)[C@H](Cc2cnc[nH]2)NC(=O)[C@H](CC(=O)O)NC(=O)[C@H](Cc2c[nH]c3ccc(F)cc23)NC(=O)[C@H](Cc2c[nH]c3ccc(F)cc23)NC(=O)CNC1=O ([Mpa]KG[Trp(5-F)][Trp(5-F)]DHY[Aze]C-NH2; linker 1-10 via mXylylene)
–	969	NCCCC[C@@H]1NC(=O)CCSCc2cccc(c2)CSC[C@@H](C(N)=O)NC(=O)[C@@H]2CCCCN2C(=O)[C@H](Cc2ccc(O)cc2)NC(=O)[C@H](Cc2cnc[nH]2)NC(=O)[C@H](CC(=O)O)NC(=O)[C@H](Cc2c[nH]c3ccc(F)cc23)NC(=O)[C@H](Cc2c[nH]c3ccc(F)cc23)NC(=O)CNC1=O ([Mpa]KG[Trp(5-F)][Trp(5-F)]DHY[Pip]C-NH2; linker 1-10 via mXylylene)
–	112	CN1C(=O)[C@H](Cc2cnc[nH]2)NC(=O)[C@H](CC(=O)O)NC(=O)[C@H](Cc2c[nH]c3ccc(F)cc23)NC(=O)[C@H](Cc2c[nH]c3ccc(F)cc23)NC(=O)CNC(=O)[C@H](CCCCN)NC(=O)CCSCc2cccc(c2)CSC[C@@H](C(N)=O)NC(=O)[C@@H]2CCCN2C(=O)[C@@H]1Cc1ccc(O)cc1 ([Mpa]KG[Trp(5-F)][Trp(5-F)]DH[NMeY]PC-NH2; linker 1-10 via mXylylene)
–	> 48000	CN1C(=O)[C@H](CC(=O)O)NC(=O)[C@H](Cc2c[nH]c3ccc(F)cc23)NC(=O)[C@H](Cc2c[nH]c3ccc(F)cc23)NC(=O)CNC(=O)[C@H](CCCCN)NC(=O)CCSCc2cccc(c2)CSC[C@@H](C(N)=O)NC(=O)[C@@H]2CCCN2C(=O)[C@H](Cc2ccc(O)cc2)NC(=O)[C@@H]1Cc1cnc[nH]1 ([Mpa]KG[Trp(5-F)][Trp(5-F)]D[NMeH]YPC-NH2; linker 1-10 via mXylylene)
–	12900	CN1C(=O)[C@H](Cc2c[nH]c3ccc(F)cc23)NC(=O)[C@H](Cc2c[nH]c3ccc(F)cc23)NC(=O)CNC(=O)[C@H](CCCCN)NC(=O)CCSCc2cccc(c2)CSC[C@@H](C(N)=O)NC(=O)[C@@H]2CCCN2C(=O)[C@H](Cc2ccc(O)cc2)NC(=O)[C@H](Cc2cnc[nH]2)NC(=O)[C@@H]1CC(=O)O ([Mpa]KG[Trp(5-F)][Trp(5-F)][NMeD]HYPC-NH2; linker 1-10 via mXylylene)
